# Assay results taken from patent publication US9018214B2, “Bicyclic heterocycle compounds and their uses in therapy” (Astex Therapeutics Limited, priority 2011, dated 2015).
# Where a name gives a salt, the structure may show the parent alone. Read-outs that look alike come from different tables or passages of the source.
# Columns and labels:
# [1] = target: BIR3 domain of human cIAP-1 (residues 267-363) (Homo sapiens (Human), UniProt Q13490); test: cIAP-1 in vitro competitive displacement binding assay (fluorescence polarization; Probe A AVPIK(5&6FAM)-amide or Probe B AbuRPFK(5&6FAM)-amide)
# [2] = test system: MDA-MB-231 (human breast carcinoma); test: Anti-proliferative activity, Alamar Blue assay, MDA-MB-231; type: cell-based; settings: read-out: EC50, inhibition of cell growth
# [3] = target: BIR3 domain of human XIAP (residues 252-350) (Homo sapiens (Human), UniProt P98170); test: XIAP in vitro competitive displacement binding assay (fluorescence polarization); settings: for IC50: read-out: IC50 or PI Xiap: IC50; for inhibition at 0.04 µM: 1 h, read-out: IC50 or PI Xiap: PI
# [4] = test system: EVSA-T (human breast carcinoma); test: Anti-proliferative activity, Alamar Blue assay, EVSA-T; type: cell-based; settings: Homo sapiens
# [5] = read-out: IC50 or PI cIAP1: IC50
# [6] = EVSA-T, 72 h, read-out: EC50, inhibition of cell growth
# [7] = EVSA-T, 72 h, read-out: EVSA-T prolif (EC50)
# [8] = Probe B AbuRPFK(5&6FAM)-amide, read-out: IC50 or PI cIAP1: IC50
# [9] = MDA-MB-231 cell line, 72 hours, Alamar Blue
# [10] = EVSA-T cell line, 72 hours, Alamar Blue, read-out: EC50, inhibition of cell growth
# [11] = EVSA-T, 72 hours, Alamar Blue, read-out: EVSA-T prolif (EC50)
SMILES,IC50 [3] [nM],"IC50 [1, 8] [nM]","EC50 [2, 9] [nM]","EC50 [4, 10] [nM]","EC50 [4, 11] [nM]","IC50 [1, 5] [nM]","EC50 ([2]; MDA-MB-231, 72 h) [nM]","EC50 [4, 7] [nM]",other results
"C[C@@H]1CN(CC(=O)N2CC(C)(C)c3cc(F)c(S(=O)(=O)c4ccccc4)cc32)CCN1 [Example 47, 1-(6-Benzenesulfonyl-5-fluoro-3,3-dimethyl-2,3-dihydro-indol-1-yl)-2-((R)-3-methyl-piperazin-1-yl)-ethanone dihydrochloride salt]",270,–,–,–,–,390,< 10000,1800,"IC50 [1]: < 1000 nM; EC50 [4, 6]: < 10000 nM"
"COC[C@H]1CN[C@H](C)CN1CC(=O)N1CC(C)(C)c2cnc(Oc3ccccc3C)cc21 [Example 83, 1-(3,3-Dimethyl-6-o-tolyloxy-2,3-dihydro-pyrrolo[3,2-c]pyridin-1-yl)-2-((2R,5R)-2-methoxymethyl-5-methyl-piperazin-1-yl)-ethanone hydrochloride salt]",350,110,< 10000,< 10000,2000,–,–,–,IC50 [1]: < 1000 nM
"COC[C@H]1CN[C@H](C)CN1CC(=O)N1CC(C)(C)c2cnc(Cc3cccc(F)c3)cc21 [Example 97, 1-{6-[(3-Fluorophenyl)methyl]-3,3-dimethyl-1H,2H,3H-pyrrolo[3,2-c]pyridin-1-yl}-2-[(2R,5R)-2-(methoxy-methyl)-5-methyl-piperazin-1-yl]ethan-1-one, hydrochloride salt]",340,17,< 10000,< 10000,320,–,–,–,–
"C=C(c1ccccc1)c1cc2c(cn1)C(C)(C)CN2C(=O)CN1C[C@@H](C)NC[C@@H]1COC [Example 93, 1-[3,3-Dimethyl-6-(1-phenylethenyl)-1H,2H,3H-pyrrolo[3,2-c]pyridin-1-yl]-2-[(2R,5R)-2-(methoxymethyl)-5-methylpiperazin-1-yl]ethan-1-one, hydrochloride salt]",490,59,< 10000,–,1000,–,–,–,–
"COC[C@H]1CN[C@H](C)CN1CC(=O)N1CC(C)(C)c2cnc(C(=O)c3ccccc3)cc21 [Example 96, 1-{6-Benzoyl-3,3-dimethyl-1H,2H,3H-pyrrolo[3,2-c]pyridin-1-yl}-2-[(2R,5R)-2-(methoxymethyl)-5-methylpiperazin-1-yl]ethan-1-one, dihydrochloride salt]",340,–,–,–,–,77,< 10000,3000,"EC50 [4, 6]: < 10000 nM"
"COC[C@H]1CN[C@H](C)CN1CC(=O)N1CC(C)(C)c2cnc(-c3cc4ccccc4o3)cc21 [Example 150, 1-[6-(1-Benzofuran-2-yl)-3,3-dimethyl-1H,2H,3H-pyrrolo[3,2-c]pyridin-1-yl]-2-[(2R,5R)-2-(methoxymethyl)-5-methylpiperazin-1-yl]ethan-1-one dihydrochloride]",270,–,–,–,–,14,< 10000,730,–
"COC[C@H]1CN[C@H](C)CN1CC(=O)N1CC(C)(C)c2cc(=O)n(Cc3ccccc3)cc21 [Example 67, 6-Benzyl-1-[2-((2R,5R)-2-methoxymethyl-5-methyl-piperazin-1-yl)-acetyl]-3,3-dimethyl-1,2,3,6-tetrahydro-pyrrolo[2,3-c]pyridin-5-one hydrochloride salt]",310,17,< 10000,< 10000,350,–,–,–,IC50 [1]: < 1000 nM
"COC[C@H]1CN[C@H](C)CN1CC(=O)N1CC(C)(C)c2ccc(S(=O)(=O)CC(C)C)cc21 [Example 64, 1-[3,3-Dimethyl-6-(2-methyl-propane-1-sulfonyl)-2,3-dihydro-indol-1-yl]-2-((2R,5R)-2-methoxymethyl-5-methyl-piperazin-1-yl)-ethanone dihydrochloride salt]",270,–,–,–,–,140,< 10000,1000,–
"COC[C@H]1CN[C@H](C)CN1CC(=O)N1CC(C)(C)c2cnc(Oc3c(C)cccc3C)cc21 [Example 119, 1-[6-(2,6-Dimethylphenoxy)-3,3-dimethyl-1H,2H,3H-pyrrolo[3,2-c]pyridin-1-yl]-2-[(2R,5R)-2-(methoxymethyl)-5-methylpiperazin-1-yl]ethan-1-one hydrochloride]",–,96,–,–,–,–,< 10000,870,–
"C[C@@H]1CN(CC(=O)N2CC(C)(C)c3cnc(Oc4ccccc4Cl)cc32)[C@@H](C(=O)N(C)C)CN1 [Example 151, (2R,5R)-1-{2-[6-(2-Chlorophenoxy)-3,3-dimethyl-1H,2H,3H-pyrrolo[3,2-c]pyridin-1-yl]-2-oxoethyl}-N,N,5-trimethylpiperazine-2-carboxamide dihydrochloride]",–,–,–,–,–,19,< 10000,590,inhibition at 0.04 µM [3]: 48%
"COC[C@H]1CN[C@H](C)CN1CC(=O)N1CC(C)(C)c2cnc(Cc3ccc(Cl)cc3)cc21 [Example 82, 1-[6-(4-Chloro-benzyl)-3,3-dimethyl-2,3-dihydro-pyrrolo[3,2-c]pyridin-1-yl]-2-((2R,5R)-2-methoxymethyl-5-methyl-piperazin-1-yl)-ethanone]",220,–,< 10000,< 10000,34,–,–,–,"inhibition at 0.01 µM ([1]; 3 h, Probe B, @ 0.01 μM, read-out: IC50 or PI cIAP1: PI): 86%"
"CC[C@H]1CN[C@H](C)CN1CC(=O)N1CC(C)(C)c2cc(F)c(S(=O)(=O)c3ccccc3)cc21 [Example 48, 1-(6-Benzenesulfonyl-5-fluoro-3,3-dimethyl-2,3-dihydro-indol-1-yl)-2-((2S,5R)-2-ethyl-5-methyl-piperazin-1-yl)-ethanone dihydrochloride salt]",97,–,–,–,–,64,< 10000,250,"IC50 [1]: < 1000 nM; EC50 [4, 6]: < 10000 nM"

# More lines, main results first:
IC50 [3] [nM],"IC50 [1, 8] [nM]","EC50 [2, 9] [nM]","EC50 [4, 10] [nM]","EC50 [4, 11] [nM]",SMILES,"IC50 [1, 5] [nM]","EC50 ([2]; MDA-MB-231, 72 h) [nM]","EC50 [4, 7] [nM]",other results
200,44,< 10000,< 10000,230,"COC[C@H]1CN[C@H](C)CN1CC(=O)N1CC(C)(C)c2cnc(Oc3c(C)cccc3Cl)cc21 [Example 130, 1-[6-(2-Chloro-6-methylphenoxy)-3,3-dimethyl-1H,2H,3H-pyrrolo[3,2-c]pyridin-1-yl]-2-[(2R,5R)-2-(methoxymethyl)-5-methylpiperazin-1-yl]ethan-1-one hydrochloride]",–,–,–,–
240,12,< 10000,–,730,"COC[C@H]1CN[C@H](C)CN1CC(=O)N1CC(C)(c2ccccn2)c2ccc(Cc3ccccc3)cc21 (stereo partly drawn) [Example 144, 1-[6-Benzyl-3-methyl-3-(pyridin-2-yl)-2,3-dihydro-1H-indol-1-yl]-2-[(2R,5R)-2-(methoxymethyl)-5-methylpiperazin-1-yl]ethan-1-one hydrochloride]",–,–,–,–
–,–,< 10000,< 10000,67,"C[C@@H]1CN(CC(=O)N2CC(C)(C)c3cnc(Oc4ccccc4Cl)cc32)[C@@H](CN2CCCC2=O)CN1 [Example 182, 1-{[(2R,5R)-1-{2-[6-(2-Chlorophenoxy)-3,3-dimethyl-1H,2H,3H-pyrrolo[3,2-c]pyridin-1-yl]-2-oxoethyl}-5-methylpiperazin-2-yl]methyl}pyrrolidin-2-one hydrochloride]",–,–,–,"inhibition at […] ([1]; 3 h, Probe B, @ 0.012 μM, read-out: IC50 or PI cIAP1: PI): 62%; inhibition at 0.04 µM ([3]; @ 0.04 μM): 73%"
380,120,< 10000,< 10000,1100,"COC[C@H]1CN[C@H](C)CN1CC(=O)N1CC(C)(C)c2cnc(Oc3c(F)cccc3F)cc21 [Example 128, 1-[6-(2,6-Difluorophenoxy)-3,3-dimethyl-1H,2H,3H-pyrrolo[3,2-c]pyridin-1-yl]-2-[(2R,5R)-2-(methoxymethyl)-5-methylpiperazin-1-yl]ethan-1-one hydrochloride]",–,–,–,–
190,21,< 10000,–,380,"C[C@@H]1CN(CC(=O)N2CC(C)(C)c3cnc(Cc4ccccc4)cc32)[C@@H](CF)CN1 [Example 121, 1-{6-Benzyl-3,3-dimethyl-1H,2H,3H-pyrrolo[3,2-c]pyridin-1-yl}-2-[(2R,5R)-2-(fluoromethyl)-5-methylpiperazin-1-yl]ethan-1-one hydrochloride]",–,–,–,–
220,29,< 10000,–,290,"C[C@@H]1CN(CC(=O)N2CC(C)(C)c3cnc(Cc4ccccc4)cc32)[C@@H](C(F)F)CN1 [Example 122, 1-{6-Benzyl-3,3-dimethyl-1H,2H,3H-pyrrolo[3,2-c]pyridin-1-yl}-2-[(2R,5R)-2-(difluoromethyl)-5-methylpiperazin-1-yl]ethan-1-one hydrochloride]",–,–,–,–
